In patent US20250320193A1, “OXOISOINDOLINYL SUBSTITUTED PIPERIDINEDIONE DERIVATIVE AND USE THEREOF” (GLUETACS THERAPEUTICS (SHANGHAI) CO., LTD., priority 2022, published 2025):

Experiments:
[1] = target: human Cereblon WT GST-tagged protein (Homo sapiens (Human), UniProt Q96SW2); experiment: CRBN-binding affinity, HTRF (CEREBLON BINDING kit, CISBIO); conditions: HTRF inhibitory activity
In short: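 Compounds were mixed with GST-tagged human Cereblon WT protein, then with Thalidomide-Red tracer and GST Eu antibody, and binding was read by HTRF. Inhibition rate was calculated from 620 nm emission relative to blank control wells (no protein) and solvent control wells.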

IKZF1 = IKZF1 (Homo sapiens (Human), UniProt Q13422+Q96SW2); experiment: Western blot, substrate protein expression in hPBMC: IKZF1; format: cell-based; conditions: for substrate protein remaining % IKZF1: hPBMC, compound 500 nM, 24 hours, Western blot; for concentration at which IKZF1 protein was significantly degraded (Western blot, FIG. 1): hPBMCs
In short: (§1)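 hPBMC, 1×10^6 cells/mL, 24 h compound exposure; RIPA lysis, BCA protein assay, SDS-PAGE, NC membrane immunoblot. Densitometry vs internal control → % protein remaining; degradation % = 100% − remaining; DC50 = conc. at 50% of DMSO band signal.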

IKZF3 = IKZF3 (Homo sapiens (Human), UniProt Q96SW2+Q9UKT9); experiment: Western blot, substrate protein expression in hPBMC: IKZF3; format: cell-based; conditions: for substrate protein remaining % IKZF3: hPBMC, compound 500 nM, 24 hours, Western blot; for concentration at which IKZF3 protein was significantly degraded (Western blot, FIG. 1): hPBMCs
In short: as §1

GSPT1 = GSPT1 (Homo sapiens (Human), UniProt P15170+Q96SW2); experiment: Western blot, substrate protein expression in hPBMC: GSPT1; format: cell-based; conditions: for substrate protein remaining % GSPT1: hPBMC, compound 500 nM, 24 hours, Western blot; for concentration at which GSPT1 protein was clearly/significantly degraded (Western blot, FIG. 1): hPBMCs
In short: as §1

[2] = system: H146 cells (human small cell lung carcinoma cells); experiment: Tumor cell proliferation inhibition, CCK-8; format: cell-based; conditions: NCI-H146, H146 cells, CCK-8, read-out: inhibitory activity (IC50, nM) H146
Procedure: (§2) The tumor cells used herein were cultured in a cell culture medium listed in table 2 at 37° C. in an incubator with 5% CO2. Prior to experimentation, all cells used were correctly identified by STR profiling, and tested negative for mycoplasma through routine screenings.
(§3) IC50 values of the compounds of the present disclosure (including the compounds in Table 1 and the Examples 1-305 compounds) were measured using the Meilun Cell Counting Kit-8 kit from Dalian Meilun Biotech Co., Ltd. Assay details are as follows: tumor cells were seeded in a 96-well plate at a density listed in Table 5. After 24 h, 100 μL of the inoculated cells were treated with 0.5 μL of the compounds of the present disclosure (including the compounds in Table 1 and the Examples 1-305 compounds) at 10 different successively decreasing concentrations (starting at the highest concentration of 10 μM; 5-fold serial dilutions). After the cells were treated with the compounds of the present disclosure for a period of time, the cell viability detection reagent was added to the culture medium for cell viability assessment according to the instructions provided with the CCK-8 kit. […] The growth inhibition of the compounds of the present disclosure on cells was plotted by Prism Graphpad software, and the IC50 values of the compounds of the present disclosure were calculated therefrom.

[3] = system: MDA-MB-231 cells (human breast adenocarcinoma cells); experiment: Tumor cell proliferation inhibition, CCK-8; format: cell-based; conditions: MDA-MB-231 cells, CCK-8, read-out: inhibitory activity (IC50, nM) MDA-MB-231
Procedure: as §2, §3

[4] = system: MM.1S cells (human multiple myeloma cells); experiment: Tumor cell proliferation inhibition, CCK-8; format: cell-based; conditions: MM1.S, MM.1S cells, CCK-8, read-out: inhibitory activity (IC50, nM) MM.1S
Procedure: as §2, §3

[5] = system: TMD8 cells (human diffuse large B-cell lymphoma cells); experiment: Tumor cell proliferation inhibition, CCK-8; format: cell-based; conditions: TMD8 cells, CCK-8, read-out: inhibitory activity (IC50, nM) TMD8
Procedure: as §2, §3

Sequence of GSPT1 (P15170 whole entry): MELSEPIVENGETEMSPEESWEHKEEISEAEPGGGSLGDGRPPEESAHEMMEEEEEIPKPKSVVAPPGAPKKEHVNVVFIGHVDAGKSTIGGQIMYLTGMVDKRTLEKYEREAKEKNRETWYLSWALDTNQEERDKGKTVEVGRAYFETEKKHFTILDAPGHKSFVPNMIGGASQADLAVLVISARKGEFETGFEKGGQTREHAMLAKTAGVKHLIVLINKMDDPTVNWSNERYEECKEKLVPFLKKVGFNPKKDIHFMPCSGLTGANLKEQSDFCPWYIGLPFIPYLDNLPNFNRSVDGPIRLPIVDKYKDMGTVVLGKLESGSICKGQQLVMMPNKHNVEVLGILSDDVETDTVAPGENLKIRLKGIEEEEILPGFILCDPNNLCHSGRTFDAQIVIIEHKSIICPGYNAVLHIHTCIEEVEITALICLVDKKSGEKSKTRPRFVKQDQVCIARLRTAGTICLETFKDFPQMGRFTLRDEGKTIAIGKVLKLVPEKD
Sequence of GSPT1 (Q96SW2 whole entry): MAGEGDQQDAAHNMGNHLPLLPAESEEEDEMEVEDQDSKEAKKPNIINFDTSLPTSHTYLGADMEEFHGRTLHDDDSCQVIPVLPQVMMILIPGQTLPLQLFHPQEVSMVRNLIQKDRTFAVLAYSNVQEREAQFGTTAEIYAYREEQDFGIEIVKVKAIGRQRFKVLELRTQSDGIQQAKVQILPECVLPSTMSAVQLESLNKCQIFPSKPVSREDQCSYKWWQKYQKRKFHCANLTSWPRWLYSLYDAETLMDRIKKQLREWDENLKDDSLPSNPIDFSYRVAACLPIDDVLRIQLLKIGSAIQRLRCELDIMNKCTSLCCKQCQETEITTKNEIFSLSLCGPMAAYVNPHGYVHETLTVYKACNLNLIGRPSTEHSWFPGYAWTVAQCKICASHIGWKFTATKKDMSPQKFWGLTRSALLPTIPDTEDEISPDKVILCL
Sequence of GSPT1 (Q16531 whole entry partner): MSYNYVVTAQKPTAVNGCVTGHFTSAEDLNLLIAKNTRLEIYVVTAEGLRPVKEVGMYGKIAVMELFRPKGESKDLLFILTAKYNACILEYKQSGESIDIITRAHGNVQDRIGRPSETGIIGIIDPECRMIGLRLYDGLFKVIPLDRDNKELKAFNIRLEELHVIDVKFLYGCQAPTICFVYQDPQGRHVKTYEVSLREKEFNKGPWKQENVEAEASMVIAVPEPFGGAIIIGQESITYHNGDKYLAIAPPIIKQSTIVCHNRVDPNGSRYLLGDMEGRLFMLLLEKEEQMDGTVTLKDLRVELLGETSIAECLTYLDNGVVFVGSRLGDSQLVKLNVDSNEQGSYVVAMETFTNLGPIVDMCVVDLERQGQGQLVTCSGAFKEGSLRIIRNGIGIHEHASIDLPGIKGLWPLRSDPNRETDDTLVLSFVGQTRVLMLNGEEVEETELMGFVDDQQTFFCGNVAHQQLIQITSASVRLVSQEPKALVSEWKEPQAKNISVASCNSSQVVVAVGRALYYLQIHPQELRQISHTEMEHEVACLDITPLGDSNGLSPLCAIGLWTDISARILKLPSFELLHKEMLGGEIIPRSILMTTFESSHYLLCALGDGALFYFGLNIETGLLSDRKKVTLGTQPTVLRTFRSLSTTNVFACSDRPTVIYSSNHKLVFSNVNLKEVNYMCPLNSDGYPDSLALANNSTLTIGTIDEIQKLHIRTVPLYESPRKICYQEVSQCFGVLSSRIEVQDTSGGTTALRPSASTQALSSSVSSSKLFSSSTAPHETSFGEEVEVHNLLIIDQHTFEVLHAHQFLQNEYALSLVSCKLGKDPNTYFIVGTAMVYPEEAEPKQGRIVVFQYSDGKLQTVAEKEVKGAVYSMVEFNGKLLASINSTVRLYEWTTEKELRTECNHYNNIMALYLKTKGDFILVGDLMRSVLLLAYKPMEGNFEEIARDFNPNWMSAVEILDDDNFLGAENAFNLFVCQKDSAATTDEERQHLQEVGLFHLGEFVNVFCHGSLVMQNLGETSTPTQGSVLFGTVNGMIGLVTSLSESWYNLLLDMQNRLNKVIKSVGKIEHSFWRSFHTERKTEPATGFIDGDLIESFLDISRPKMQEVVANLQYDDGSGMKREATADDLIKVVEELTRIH
Sequence of human Cereblon WT GST-tagged protein (Q96SW2 whole entry): as the sequence (Q96SW2 whole entry) above
Sequence of IKZF3 (Q9UKT9 whole entry): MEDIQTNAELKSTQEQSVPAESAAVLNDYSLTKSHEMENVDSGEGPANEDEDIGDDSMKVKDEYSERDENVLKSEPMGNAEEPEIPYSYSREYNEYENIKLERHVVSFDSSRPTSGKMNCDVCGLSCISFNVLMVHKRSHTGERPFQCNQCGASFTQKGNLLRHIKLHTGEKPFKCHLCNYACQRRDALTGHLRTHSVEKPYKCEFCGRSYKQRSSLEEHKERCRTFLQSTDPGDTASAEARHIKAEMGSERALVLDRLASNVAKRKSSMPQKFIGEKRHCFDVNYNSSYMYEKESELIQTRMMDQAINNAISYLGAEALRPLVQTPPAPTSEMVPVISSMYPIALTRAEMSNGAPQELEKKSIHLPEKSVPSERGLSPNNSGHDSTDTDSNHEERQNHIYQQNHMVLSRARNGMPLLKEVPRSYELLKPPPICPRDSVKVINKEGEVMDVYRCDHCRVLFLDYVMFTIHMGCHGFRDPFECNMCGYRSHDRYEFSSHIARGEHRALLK
Sequence of IKZF3 (Q96SW2 whole entry): as the sequence (Q96SW2 whole entry) above
Sequence of IKZF3 (Q16531 whole entry partner): as the sequence (Q16531 whole entry partner) above
Sequence of IKZF1 (Q13422 whole entry): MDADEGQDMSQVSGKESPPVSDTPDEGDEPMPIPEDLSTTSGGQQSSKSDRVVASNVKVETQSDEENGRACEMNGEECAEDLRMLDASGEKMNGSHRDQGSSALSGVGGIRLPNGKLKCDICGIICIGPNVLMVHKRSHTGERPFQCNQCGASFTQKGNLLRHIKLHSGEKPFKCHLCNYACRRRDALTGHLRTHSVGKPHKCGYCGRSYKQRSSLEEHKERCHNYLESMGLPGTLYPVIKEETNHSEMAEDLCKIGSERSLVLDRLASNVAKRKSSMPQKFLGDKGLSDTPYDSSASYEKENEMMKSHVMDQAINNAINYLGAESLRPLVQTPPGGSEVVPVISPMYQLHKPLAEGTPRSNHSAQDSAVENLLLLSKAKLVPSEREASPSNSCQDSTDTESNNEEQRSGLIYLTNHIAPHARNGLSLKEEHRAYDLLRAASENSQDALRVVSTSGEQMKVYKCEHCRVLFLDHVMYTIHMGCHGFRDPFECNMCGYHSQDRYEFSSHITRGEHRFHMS
Sequence of IKZF1 (Q96SW2 whole entry): as the sequence (Q96SW2 whole entry) above
Sequence of IKZF1 (Q16531 whole entry partner): as the sequence (Q16531 whole entry partner) above

O=C1CCC(N2Cc3cc(CN4CCC(N(c5ccccc5)c5ccccn5)CC4)ccc3C2=O)C(=O)N1 (stereo not drawn) [GT-04525, 3-(1-oxo-5-((4-(phenyl(pyridin-2-yl)amino)piperidin-1-yl)methyl)isoindolin-2-yl)piperidine-2,6-dione]
IC50 [1]: < 500 nM | substrate protein remaining % IKZF1 (IKZF1): A (A represents 0% ≤ substrate protein remaining % ≤ 50%) | concentration at which IKZF1 protein was significantly degraded (Western blot, FIG. 1) (IKZF1): below 50 nM | substrate protein remaining % IKZF3 (IKZF3): A (A represents 0% ≤ substrate protein remaining % ≤ 50%) | concentration at which IKZF3 protein was significantly degraded (Western blot, FIG. 1) (IKZF3): below 50 nM | substrate protein remaining % GSPT1 (GSPT1): A (A represents 0% ≤ substrate protein remaining % ≤ 50%) | concentration at which GSPT1 protein was clearly/significantly degraded (Western blot, FIG. 1) (GSPT1): below 50 nM | IC50 [2]: 1 to 10 nM | IC50 [3]: 1 to 10 nM | IC50 [4]: < 1 nM | IC50 [5]: 1 to 10 nM

O=C1CCC(N2Cc3c(ccc(CN4CCC(N(c5ccccc5)c5ccccn5)CC4)c3F)C2=O)C(=O)N1 (stereo not drawn) [GT-05856, 3-(4-fluoro-1-oxo-5-((4-(phenyl(pyridin-2-yl)amino)piperidin-1-yl)methyl)isoindolin-2-yl)piperidine-2,6-dione]
IC50 [1]: < 500 nM | substrate protein remaining % IKZF1 (IKZF1): A (A represents 0% ≤ substrate protein remaining % ≤ 50%) | concentration at which IKZF1 protein was significantly degraded (Western blot, FIG. 1) (IKZF1): below 50 nM | substrate protein remaining % IKZF3 (IKZF3): A (A represents 0% ≤ substrate protein remaining % ≤ 50%) | concentration at which IKZF3 protein was significantly degraded (Western blot, FIG. 1) (IKZF3): below 50 nM | substrate protein remaining % GSPT1 (GSPT1): A (A represents 0% ≤ substrate protein remaining % ≤ 50%) | concentration at which GSPT1 protein was clearly/significantly degraded (Western blot, FIG. 1) (GSPT1): below 50 nM | IC50 [2]: 1 to 10 nM | IC50 [3]: 1 to 10 nM | IC50 [4]: < 1 nM | IC50 [5]: 1 to 10 nM

O=C1CCC(N2Cc3cc(CN4CCC(N(c5ccccc5)c5ccccn5)CC4)c(F)cc3C2=O)C(=O)N1 (stereo not drawn) [GT-05857, 3-(6-fluoro-1-oxo-5-((4-(phenyl(pyridin-2-yl)amino)piperidin-1-yl)methyl)isoindolin-2-yl)piperidine-2,6-dione]
IC50 [1]: < 500 nM | substrate protein remaining % IKZF1 (IKZF1): A (A represents 0% ≤ substrate protein remaining % ≤ 50%) | concentration at which IKZF1 protein was significantly degraded (Western blot, FIG. 1) (IKZF1): below 50 nM | substrate protein remaining % IKZF3 (IKZF3): A (A represents 0% ≤ substrate protein remaining % ≤ 50%) | concentration at which IKZF3 protein was significantly degraded (Western blot, FIG. 1) (IKZF3): below 50 nM | substrate protein remaining % GSPT1 (GSPT1): A (A represents 0% ≤ substrate protein remaining % ≤ 50%) | concentration at which GSPT1 protein was clearly/significantly degraded (Western blot, FIG. 1) (GSPT1): below 50 nM | IC50 [2]: 1 to 10 nM | IC50 [3]: 1 to 10 nM | IC50 [4]: < 1 nM | IC50 [5]: 1 to 10 nM

O=C1CCC(N2Cc3cc(N4C5CCC4CN(C(c4ccccc4)c4ccccc4)C5)ccc3C2=O)C(=O)N1 (stereo not drawn) [GT-05866, 3-(5-(3-benzhydryl-3,8-diazabicyclo[3.2.1]octan-8-yl)-1-oxoisoindolin-2-yl)piperidine-2,6-dione]
IC50 [1]: 500 to 1000 nM | substrate protein remaining % IKZF1 (IKZF1): B (B represents substrate protein remaining % > 50%) | substrate protein remaining % IKZF3 (IKZF3): A (A represents 0% ≤ substrate protein remaining % ≤ 50%) | substrate protein remaining % GSPT1 (GSPT1): A (A represents 0% ≤ substrate protein remaining % ≤ 50%) | IC50 [2]: 10 to 50 nM | IC50 [3]: 10 to 50 nM | IC50 [4]: 1 to 10 nM | IC50 [5]: 50 to 100 nM

O=C1CCC(N2Cc3cc(CN4C[C@@H]5C[C@H]4CN5C(c4ccccc4)c4ccccc4)c(F)cc3C2=O)C(=O)N1 (stereo partly drawn) [GT-05894, 3-(5-(((1S,4S)-5-benzhydryl-2,5-diazabicyclo[2.2.1]heptan-2-yl)methyl)-6-fluoro-1-oxoisoindolin-2-yl)piperidine-2,6-dione]
IC50 [1]: < 500 nM | substrate protein remaining % IKZF1 (IKZF1): A (A represents 0% ≤ substrate protein remaining % ≤ 50%) | substrate protein remaining % IKZF3 (IKZF3): B (B represents substrate protein remaining % > 50%) | substrate protein remaining % GSPT1 (GSPT1): A (A represents 0% ≤ substrate protein remaining % ≤ 50%) | IC50 [2]: 10 to 50 nM | IC50 [3]: 50 to 100 nM | IC50 [4]: 1 to 10 nM | IC50 [5]: 500 to 1000 nM

O=C1CCC(N2Cc3cc(CN4CCN(C5c6ccccc6-c6ccccc65)CC4)ccc3C2=O)C(=O)N1 (stereo not drawn) [GT-05907, 3-(5-((4-(9H-fluoren-9-yl)piperazin-1-yl)methyl)-1-oxoisoindolin-2-yl)piperidine-2,6-dione]
IC50 [1]: < 500 nM | substrate protein remaining % IKZF1 (IKZF1): A (A represents 0% ≤ substrate protein remaining % ≤ 50%) | substrate protein remaining % IKZF3 (IKZF3): A (A represents 0% ≤ substrate protein remaining % ≤ 50%) | substrate protein remaining % GSPT1 (GSPT1): A (A represents 0% ≤ substrate protein remaining % ≤ 50%) | IC50 [2]: 10 to 50 nM | IC50 [3]: 10 to 50 nM | IC50 [4]: 1 to 10 nM | IC50 [5]: 10 to 50 nM

O=C1CCC(N2Cc3cc(CN4CCN(C(c5ccccc5F)c5ccccc5F)CC4)ccc3C2=O)C(=O)N1 (stereo not drawn) [GT-06084, 3-(5-((4-(bis(2-fluorophenyl)methyl)piperazin-1-yl)methyl)-1-oxoisoindolin-2-yl)piperidine-2,6-dione]
IC50 [1]: < 500 nM | substrate protein remaining % IKZF1 (IKZF1): A (A represents 0% ≤ substrate protein remaining % ≤ 50%) | substrate protein remaining % IKZF3 (IKZF3): A (A represents 0% ≤ substrate protein remaining % ≤ 50%) | substrate protein remaining % GSPT1 (GSPT1): A (A represents 0% ≤ substrate protein remaining % ≤ 50%) | IC50 [2]: 10 to 50 nM | IC50 [3]: 10 to 50 nM | IC50 [4]: 1 to 10 nM | IC50 [5]: 10 to 50 nM

O=C1CCC(N2Cc3c(ccc(CN4CCN(C(c5ccccc5F)c5ccccc5F)CC4)c3F)C2=O)C(=O)N1 (stereo not drawn) [GT-06085, 3-(5-((4-(bis(2-fluorophenyl)methyl)piperazin-1-yl)methyl)-4-fluoro-1-oxoisoindolin-2-yl)piperidine-2,6-dione]
IC50 [1]: 500 to 1000 nM | substrate protein remaining % IKZF1 (IKZF1): A (A represents 0% ≤ substrate protein remaining % ≤ 50%) | substrate protein remaining % IKZF3 (IKZF3): A (A represents 0% ≤ substrate protein remaining % ≤ 50%) | substrate protein remaining % GSPT1 (GSPT1): A (A represents 0% ≤ substrate protein remaining % ≤ 50%) | IC50 [2]: 10 to 50 nM | IC50 [3]: 10 to 50 nM | IC50 [4]: 1 to 10 nM | IC50 [5]: 10 to 50 nM

O=C1CCC(N2Cc3cc(CN4CCN(C(c5ccccc5F)c5ccccc5F)CC4)c(F)cc3C2=O)C(=O)N1 (stereo not drawn) [GT-06086, 3-(5-((4-(bis(2-fluorophenyl)methyl)piperazin-1-yl)methyl)-6-fluoro-1-oxoisoindolin-2-yl)piperidine-2,6-dione]
IC50 [1]: 500 to 1000 nM | substrate protein remaining % IKZF1 (IKZF1): A (A represents 0% ≤ substrate protein remaining % ≤ 50%) | substrate protein remaining % IKZF3 (IKZF3): A (A represents 0% ≤ substrate protein remaining % ≤ 50%) | substrate protein remaining % GSPT1 (GSPT1): A (A represents 0% ≤ substrate protein remaining % ≤ 50%) | IC50 [2]: 10 to 50 nM | IC50 [3]: 10 to 50 nM | IC50 [4]: 1 to 10 nM | IC50 [5]: 10 to 50 nM

O=C1CCC(N2Cc3cc(CN4CCN(C(c5ccccc5F)c5ccccc5F)CC4)cc(F)c3C2=O)C(=O)N1 (stereo not drawn) [GT-06087, 3-(5-((4-(bis(2-fluorophenyl)methyl)piperazin-1-yl)methyl)-7-fluoro-1-oxoisoindolin-2-yl)piperidine-2,6-dione]
IC50 [1]: < 500 nM | substrate protein remaining % IKZF1 (IKZF1): B (B represents substrate protein remaining % > 50%) | substrate protein remaining % IKZF3 (IKZF3): B (B represents substrate protein remaining % > 50%) | substrate protein remaining % GSPT1 (GSPT1): A (A represents 0% ≤ substrate protein remaining % ≤ 50%) | IC50 [2]: 50 to 100 nM | IC50 [3]: 100 to 500 nM | IC50 [4]: 10 to 50 nM | IC50 [5]: 100 to 500 nM

O=C1CCC(N2C(=O)c3ccc(CN4CCN(C(c5cc(F)cc(F)c5)c5cc(F)cc(F)c5)CC4)cc3C2=O)C(=O)N1 (stereo not drawn) [GT-06596, 5-((4-(bis(3,5-difluorophenyl)methyl)piperazin-1-yl)methyl)-2-(2,6-dioxopiperidin-3-yl) isoindoline-1,3-dione]
substrate protein remaining % IKZF1 (IKZF1): A (A represents 0% ≤ substrate protein remaining % ≤ 50%) | substrate protein remaining % IKZF3 (IKZF3): A (A represents 0% ≤ substrate protein remaining % ≤ 50%) | substrate protein remaining % GSPT1 (GSPT1): A (A represents 0% ≤ substrate protein remaining % ≤ 50%) | IC50 [2]: 100 to 500 nM | IC50 [3]: 100 to 500 nM | IC50 [4]: 50 to 100 nM | IC50 [5]: 500 to 1000 nM
